Measured values published in patent publication US6352727B1, “Bactericides” (Oji Paper Co., Ltd., priority 1998, dated 2002).

Legend:
Assay type in all cases: cell-based
[1] = system: Salmonella enteritidis; assay: Test of bactericidal power of bactericides after treating beef (block); conditions: 5 min
Method: (§1) 100 ml of each of bactericides shown in Table 25 was charged into a vessel. 21 g of beef (block) was immersed in the bactericide, and allowed to stand at room temperature. After 24 hours, the beef was removed, and general bacterium (bacterium liberated from the beef) present in the bactericide were removed using a sterilized filter. 30 μl of bacteria suspension of Staphylococcus aureus or Salmonella enteritidis was added to 2 ml of the bactericide after used for the treatment of the beef. After five minutes, the number of bacterium in the bactericide was counted. As for 0.01% sodium hypochlorite, a similar test was conducted, and the results were compared.

[2] = system: Staphylococcus aureus; assay: as above; conditions: 5 min
Method: as §1

[3] = system: general bacterium on the surface of beef; assay: Number of bacterium on the surface of beef treated with bactericide; conditions: 5 minutes immersion, preserved at 4° C.
Method: 50 ml of each of bactericides was charged in a vessel, and then 15 g of beef (block) was immersed in the bactericide, and allowed to stand at room temperature (surface sterilization). After 5 minutes, the bactericide was removed, and only the beef was preserved in the vessel at 4° C. After certain period ((1) after one day, (2) after three days, (3) after six days), 25 ml of physiological saline was added to the vessel containing the beef, and shaked. The number of the bacterium cells liberated from the beef into the physiological saline was counted. It was confirmed according to preliminary experiments that the number of the bacterium cells per one gram of the beef existing on the surface of the beef before sterilization treatment was 10 or less. Sterilized water and sodium hypochlorite were also examined.

[4] = system: Staphylococcus aureus IF012732; assay: Test of bactericidal power of bactericides mixed with meat (beef) extract
Method: (§2) It was evaluated whether bactericidal power was lowered when the bactericides shown in Table 20 were mixed with beef extract (Wako Junyaku) according to the following method. For comparison, sodium hypochlorite was also evaluated. Strains used herein were Staphylococcus aureus IF012732 and Salmonella enteritidis IF003313.
(§3) One ml of each of bactericides shown in Table 20 and one ml of 5% beef extract (dissolved in sterilized water) were mixed at a ratio of one to one, and allowed to stand at a room temperature. After 10 minutes, 10 μl of bacteria suspension previously prepared was added to each of the bactericides and the mixture, and allowed to stand after stirred. Change of number of bacteria in the mixture solution was determined (one minute, five minutes and 10 minutes after addition of bacteria). According to previous experiments, it was confirmed that general viable count was 10 or less per one ml of 5% beef extract. As shown in Table 21 and Table 22, when 0.02% of sodium hypochlorite was mixed with a beef extract, bactericidal power thereof was lowered.
The bactericides shown in Table 23 were examined for bactericidal power in a similar manner to that of Test Example 7.

[5] = system: Salmonella enteritidis IF003313; assay: as above
Method: as §2, §3

[6] = system: Trichophyton mentagrphytes; assay: Test of activity against Trichophyton mentagrphytes (paper disk, block circle); conditions: 8 mm paper disk with 25 μl, dried 24 hours; cultured at 28° C. for five days
Method: A paper disk having a diameter of 8 mm that was previously subjected to dry heat sterilization, was impregnated with 25 μl of each of fungicides shown in Table 8 and allowed to stand for 24 hours to be dried. The paper disk was put on agar medium on which spore suspension of Trichophyton […] previously prepared was spread, and cultured at 28° C. for five days. […] No block circle was formed when a fungicide containing only chitosan (Comparative Example 4) was used.

[7] = system: Bacillus subtilis; assay: Test of persistency of bactericidal power on stainless steel
Method: (§4) Each of bactericide shown in Table 8 was sprayed on a sterilized stainless steel plate (15 μl/cm^2), and allowed to stand for seven days in a sterilized room to be dried. Each of the bacteria suspension previously cultured in a similar manner to that described above was diluted with physiological saline. Then, 10 μl of the diluted suspension was spread on the stainless steel. After allowed to stand for 10 minutes, bacterium on the stainless steel were wiped with absorbent cotton, and liberated into physiological saline. Then, visible count was counted. For comparison, 70% ethanol was used as a conventional bactericide. Strong bactericidal power of each bactericide of examples containing both eucalyptus extract and chitosan was maintained, even after elapse of seven days, on the stainless steel on which it was spread. The bactericidal power was stronger than that of bactericides containing only eucalyptus extract (Comparative Examples 1 to 3) or a bactericide containing only chitosan (Comparative Example 4).
(§5) Persistency of bactericidal power of the bactericides shown in Table 16 was evaluated in a similar manner to that of Test Example 3 (allowed to stand for one month). After elapse of one month from spraying of the bactericide, bactericidal power of the bactericide containing glycerol fatty acid ester in addition to eucalyptus extract and chitosan (Example 4) was stronger than that of bactericides containing no glycerol fatty acid ester (Comparative Example 5).

[8] = system: Escherichia coli; assay: as above
Method: as §4, §5

[9] = system: MRSA; assay: as above
Method: as §4, §5

[10] = system: Salmonella enteritidis; assay: as above
Method: as §4, §5

[11] = system: Staphylococcus aureus; assay: as above
Method: as §4, §5

[12] = treatment of beef done (24 hours)
[13] = mixing treatment of beef extract and bactericide (10 min) done, 1 min
[14] = mixing treatment of beef extract and bactericide (10 min) done, 5 min
[15] = mixing treatment of beef extract and bactericide (10 min) done, 10 min
[16] = mixing treatment with beef extract none, 1 min
[17] = mixing treatment with beef extract none, 5 min
[18] = mixing treatment with beef extract none, 10 min

## OCl [0.01% Sodium hypochlorite, sodium hypochlorite]
[1]; [12]
  Viable count: 1.5 × 10^5 Number/ml
[1]; treatment of beef none
  Viable count: <1000 Number/ml
[2]; [12]
  Viable count: 1.8 × 10^5 Number/ml
[2]; treatment of beef none
  Viable count: <1000 Number/ml
[3]; After 3 days
  Number of general bacterium: 1.4 × 10^5 Number/g
[3]; After 6 days
  Number of general bacterium: 3.4 × 10^7 Number/g
[3]; After one day
  Number of general bacterium: 6.7 × 10^2 Number/g

## [Na+].[O-]Cl [0.02% Sodium hypochloryte, sodium hypochlorite]
[4]; [13]
  Viable count: 6.5 × 10^6 Number/ml
[4]; [14]
  Viable count: 6.5 × 10^6 Number/ml
[4]; [15]
  Viable count: 6.4 × 10^6 Number/ml
[4]; [16]
  Viable count: <200 Number/ml
[4]; [17]
  Viable count: <200 Number/ml
[4]; [18]
  Viable count: <200 Number/ml
[5]; [13]
  Viable count: 4.5 × 10^5 Number/ml
[5]; [14]
  Viable count: 4.3 × 10^5 Number/ml
[5]; [15]
  Viable count: 4.3 × 10^5 Number/ml
[5]; [16]
  Viable count: <200 Number/ml
[5]; [17]
  Viable count: <200 Number/ml
[5]; [18]
  Viable count: <200 Number/ml

## CCO [70% Ethanol, Ethanol]
[6]
  Diameter of block circle: None
[7]
  Viable count (After 7 days): 3.0 × 10^6 Number/100 cm^2
[8]
  Viable count (After 7 days): 2.2 × 10^6 Number/100 cm^2
[9]
  Viable count (After 7 days): 1.2 × 10^6 Number/100 cm^2
[10]
  Viable count (After 7 days): 4.5 × 10^6 Number/100 cm^2
[11]
  Viable count (After 7 days): 3.5 × 10^6 Number/100 cm^2
